Data reported in US6509153B1, “Genetic markers of toxicity preparation and uses” (Exonhit Therapeutics SA, priority 1999, dated 2003).
Structures can show the parent of a compound that is named as a salt.

What was measured:
[1] = cell viability test (MTT) used to calculate the IC80 concentration; type: cell-based; settings: human, HepG2 cells, read-out: Concentration (corresponds to an IC80, MTT); for IC80 at 4 h: exposure time 4 h
Text: (§1) HepG2 cells are then individually treated with different compounds with different levels of toxicity.

HepG2 cells = assay: hybridization of probes from treated HepG2 cells on p53 apoptosis filter (toxicity index); type: cell-based; settings: HepG2 cells treated at IC80 concentration, compared with aspirin
Text: as §1

SMILES | IC80 at 18 h ([1]; exposure time 18 h) | further results
CC(=O)Oc1ccccc1C(=O)O [Aspirin] | 2000 µM | –
CC[C@@]1(O)C(=O)OCc2c1cc1n(c2=O)Cc2cc3ccccc3nc2-1 [Camptothecin] | – | IC80 at 4 h [1]: 1 µg/mL
Clc1cccc(Cl)c1N=C1NCCN1 [Clonidine] | 150 µM | –
C[C@@H]1C[C@@H]([C@H](O)CC2CC(=O)NC(=O)C2)C(=O)[C@@H](C)C1 [Cycloheximide] | 5 µg/mL | –
O=C(O)Cc1ccccc1Nc1c(Cl)cccc1Cl [Diclofenac] | 50 µg/mL | splicing events identical to those induced by p53-related toxicity (toxicity index ranking) (HepG2 cells): generates more splicing events identical to those induced by p53 -related toxicity than aspirin
CNC[C@H](O)c1ccc(O)c(O)c1 [Epinephrine Hydrate] | 50 µg/mL | –
CC[C@H]1OC(=O)[C@H](C)[C@@H](O[C@H]2C[C@@](C)(OC)[C@@H](O)[C@H](C)O2)[C@H](C)[C@@H](O[C@@H]2O[C@H](C)C[C@H](N(C)C)[C@H]2O)[C@](C)(O)C[C@@H](C)C(=O)[C@H](C)[C@@H](O)[C@]1(C)O [Erythromycin] | 2.5 µg/mL | –
CCO [Ethanol] | – | IC80 at 4 h [1]: 100000 µM
COc1cc([C@@H]2c3cc4c(cc3[C@@H](O[C@@H]3O[C@@H]5CO[C@@H](C)O[C@H]5[C@H](O)[C@H]3O)[C@H]3COC(=O)[C@H]23)OCO4)cc(OC)c1O [Etoposide] | 50 µg/mL | –
CN(Cc1cnc2nc(N)nc(N)c2n1)c1ccc(C(=O)N[C@@H](CCC(=O)O)C(=O)O)cc1 [Methotrexate] | 0.5 µM | –
CC(=O)Nc1ccc(O)cc1 [Paracetamol] | 1000 µM | –
CN[C@@H]1C[C@H]2O[C@@](C)([C@@H]1OC)n1c3ccccc3c3c4c(c5c6ccccc6n2c5c31)C(=O)NC4 [Staurosporine] | – | IC80 ([1]; exposure time 18 h): 0.05 µM
CC(C)(C)NCC(O)c1cc(O)cc(O)c1 (stereo not shown) [Terbutaline Sulfate] | 0.2 µg/mL | –
CC(C)[C@@H]1NC(=O)[C@H](C)OC(=O)[C@@H](C(C)C)NC(=O)[C@@H](C(C)C)OC(=O)[C@H](C(C)C)NC(=O)[C@H](C)OC(=O)[C@@H](C(C)C)NC(=O)[C@@H](C(C)C)OC(=O)[C@H](C(C)C)NC(=O)[C@H](C)OC(=O)[C@@H](C(C)C)NC(=O)[C@@H](C(C)C)OC1=O [Valinomycin] | 0.015 µM | –
CC[C@]1(O)C[C@@H]2CN(CCc3c([nH]c4ccccc34)[C@@](C(=O)OC)(c3cc4c(cc3OC)N(C)[C@H]3[C@@](O)(C(=O)OC)[C@H](OC(C)=O)[C@]5(CC)C=CCN6CC[C@]43[C@@H]65)C2)C1 [Vinblastine Sulfate] | 30 µM | –
